Source: paper PMC10857906, “PROTAC-mediated NR4A1 degradation as a novel strategy for cancer immunotherapy” (The Journal of Experimental Medicine, 2024)

Experiments:
[1] = test system: splenic B cells; assay: B cell proliferation assay (splenic B cells, B16F10 lysate, Cell Trace Violet); assay type: cell-based, mouse; settings: WT B cells with B16F10 lysates, 250 or 500 nM, 24 h
Method: B cells were isolated from the spleen by using EasySep Mouse B cell Isolation Kit (19854; STEMCELL) and cultured in RPMI supplemented with […] non-essential amino acids (11140050; Thermo Fisher Scientific), 1 mM sodium pyruvate (11360070; Thermo Fisher Scientific), 1 mM Glutamax, 10 mM HEPES (15630080; Thermo Fisher Scientific), 0.1% 2-mercaptoethanol (21985023; Thermo Fisher Scientific), 10% FBS (F2442; Sigma-Aldrich) and 100 U/ml penicillin, and 100 µg/ml streptomycin (P4333; Sigma-Aldrich). B cells were stained with 5 nM CellTrace Violet Cell (C34557; Thermo Fisher Scientific) for 8 min in a 37°C water bath. B cells were plated at a concentration of 5 × 10^5 cells per 200 μl in round-bottom 96-well plates treated with 0.1% B16F10 melanoma cell lysis or 10 µg/ml goat anti-mouse IgM F(ab′)2 (115-006-020; Jackson ImmunoResearch). B cells were treated with NR-V04 or DMSO for 24 h and collected for flow cytometry analysis.
(§1) Mouse tumors were excised and ∼200 mg of tumor tissue was enzymatically and mechanically digested using the mouse Tumor Dissociation Kit (Miltenyi Biotec) to obtain a single-cell suspension. […] Flow cytometry was performed on a three laser Cytek Aurora Cytometer (Cytek Biosciences) and analyzed using FlowJo software (BD Biosciences). […]

[2] = test system: immune cells in the TME, spleen and blood; assay: Immune profile by flow cytometry in B16F10 tumor-bearing mice; assay type: in vivo, mouse
Method: (§2) For syngeneic tumor models, 5 × 10^5 cells MC38, Yumm1.7, and Yummer1.7, 1 × 10^5 cells of B16F10 were resuspended in PBS and implanted into 7–9-wk-old mice subcutaneously. For the tumor inhibition experiment, mice were treated with 1.8 mg/kg NR-V04 or 0.75 mg/kg celastrol by i.p. injection twice weekly. For the immune profile experiment, once tumors reached 0.5 cm in diameter, mice were treated with 1.8 mg/kg NR-V04 by i.p. injection twice weekly. For the toxicity experiment, male and female non-tumor-bearing mice were treated with 2 mg/kg NR-V04 for two doses in the first week and 5 mg/kg for another two doses in the second week. Blood samples were taken from the submandibular (facial) vein before each treatment and 42 days later for hematological analysis, and body weight was measured twice per week up to day 42. Mice were euthanized in accordance with the IACUC protocol once the largest tumors reached 2 cm in diameter, and tissues were collected for further analysis.
Mouse tumors were excised and ∼200 mg of tumor tissue was enzymatically and mechanically digested using the mouse Tumor Dissociation Kit (Miltenyi Biotec) to obtain a single-cell suspension. Human tumor samples and sections were enzymatically and mechanically digested using the human Tumor Dissociation Kit (Miltenyi Biotec) to obtain single-cell suspension. Red blood cells were lysed using ACK lysis buffer and mononuclear cells were isolated by density gradient using SepMate Tubes (StemCell Technologies) and Lymphoprep density gradient media (StemCell Technologies). Mouse cells were then washed and incubated with combinations of the following antibodies: anti-mouse CD62L-BV785 (clone MEL-14), anti-mouse MHCII I-A/I-E-BB515 (Clone 2G9, 1:400; BD Biosciences), anti-mouse CD11B-PEdazzle 594 (clone M1/70, 1:200), anti-mouse CD45-AF532 (clone 30F.11), anti-mouse CD3-APC/Cy7 (clone 17A2), anti-mouse CD8-BV510 (clone 53-6.7), anti-mouse CD4-BV605 (clone GK1.5), anti-mouse NK1.1-AF700 (clone PK136), anti-mouse/human CD45R/B220-BV 570 (clone RA3-6B2), anti-mouse CD138-BV711 (clone 281-2), […], anti-mouse IgD-PE-Cy7 (clone 11-26c.2a), anti-mouse Ly6G-FITC (clone IA8), anti-mouse Ly6C-BV711 (clone HK1.4), anti-mouse CD38-PerCP/Cy 5.5 (clone 90) anti-mouse IgM-AF488 (clone RMM-1), anti-mouse CD25-PE-Cy5 (clone PC61) plus zombie red (cell viability; Thermo Fisher Scientific), and mouse FcR blocker (anti-mouse CD16/CD32, clone 2.4G2; BD Biosciences). After surface staining, cells were fixed and permeabilized using the FOXP3/Transcription Factor Staining Buffer Set (eBioscience). Cells were stained with a combination of the following antibodies: anti-mouse FOXP3-efluor 450 (clone FJK-16S, 1:50; eBioscience), anti-mouse Granzyme B-BV421 (clone GB11), and anti-mouse NR4A1-PE (clone 12.14; eBioscience). Human cells were stained with a combination of the following antibodies: anti-human CD45-BV510 (clone H130), anti-human CD3-AF700 (clone HIT5a), anti-human CD4-BV421 (clone OKT4), anti-human CD8-BV711 (clone RPA-T8), anti-human CD127-BV605 (clone A019DS), anti-human CD25-PE-Cy7 (clone MA251) plus FVD-eFluor-780 (eBioscience), and human FcR blocking reagent (StemCell Technologies). Cells were washed then fixed and permeabilized using the eBioscience FOXP3/Transcription Factor Staining Buffer Set. […] Flow cytometry was performed on a three laser Cytek Aurora Cytometer (Cytek Biosciences) and analyzed using FlowJo software (BD Biosciences). […]

[3] = test system: TI-B cells; assay: Immune profile by flow cytometry in Yumm1.7 tumor-bearing mice; assay type: in vivo, mouse; settings: Yumm1.7 tumors, 2 doses of 1.8 mg/kg i.p.
Method: as §2, §1

[4] = biological target: T1, VHL (Homo sapiens, UniProt P40337); assay: VHL protein level after treatment (immunoblotting); assay type: cell-based; settings: human melanoma cell lines, 16 h
T1 construct: endogenous in cells; host or cells: CHL-1, A375, WM164, M229 human melanoma cells
Method: Samples were lysed using radioimmunoprecipitation assay buffer (RIPA) lysis buffer (150 mM NaCl, 5 mM EDTA, 50 mM Tris pH 8.0, 0.5% sodium deoxycholate, 1% NP-40, 0.1% SDS) supplemented with 1 mM dithiothreitol and protease inhibitors. The lysates were separated by SDS-PAGE and analyzed using standard western blotting procedures ([Khan et al., 2019]). Antibodies: human NR4A1 (ab153914, 1:1,000; Abcam), mouse NR4A1 (14-5965-82, 1:1,000; Invitrogen), NR4A2 (AV38753, 1:1,000; Sigma-Aldrich), NR4A3 (TA804893, 1: 1,000; Thermo Fisher Scientific), VHL (68547, 1:1,000; Cell Signaling), β-actin (13E5, 1:5,000; Cell Signaling), β-tubulin (9F3, 1: 5,000; Cell Signaling), and GAPDH (D16H11, 1: 5,000; Cell Signaling) were employed for protein detection.

T1 sequence (P40337 whole entry): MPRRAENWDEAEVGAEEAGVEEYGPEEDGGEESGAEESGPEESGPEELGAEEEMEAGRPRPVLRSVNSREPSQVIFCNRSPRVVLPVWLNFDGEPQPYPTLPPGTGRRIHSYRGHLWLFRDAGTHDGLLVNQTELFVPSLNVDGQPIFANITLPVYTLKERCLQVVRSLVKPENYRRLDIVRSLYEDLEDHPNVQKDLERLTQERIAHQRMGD

CC1=C(O)C(=O)C=C2C1=CC=C1[C@@]2(C)CC[C@@]2(C)[C@@H]3C[C@](C)(C(=O)NCCOCCOCCOCCOCC(=O)N[C@H](C(=O)N4C[C@H](O)C[C@H]4C(=O)N[C@@H](C)c4ccc(-c5scnc5C)cc4)C(C)(C)C)CC[C@]3(C)CC[C@]12C [NR-V04]
B cell proliferation [1]: significantly increased B cell proliferation | NR4A1 in B cells [1]: led to NR4A1 degradation in B cells | B cells in the spleen and blood ([2]; B16F10 model, 2 doses of 1.8 mg/kg i.p.): no significant change | CD8^+ Texh cells in vivo ([2]; B16F10 tumors): did not observe a significant decrease in CD8^+ Texh cells | TI-B cells (B220^+ cells) ([2]; B16F10 tumors, 2 doses of 1.8 mg/kg i.p. on day 1 and day 4, collected day 7, vehicle 14.7%): 30.1% | effector memory CD8 T cells (CD44^+CD62L^− Tem) ([2]; spleen and tumors, B16F10 model, 2 doses of 1.8 mg/kg i.p.): increase in effector memory CD8 T cells | monocytic myeloid-derived suppressor cells (m-MDSC, CD11B^+Ly6C^+) ([2]; tumors and blood, B16F10 model, 2 doses of 1.8 mg/kg i.p.): decrease in monocytic myeloid-derived suppressor cells | TI-B cells [3]: significant increase in the TI-B cells | VHL protein level [4]: accumulation of VHL protein
